Measurements published in ChEMBL document CHEMBL1833866, “Synthesis and evaluation of 1-(4-[¹⁸F]fluoroethyl)-7-(4'-methyl)curcumin with improved brain permeability for β-amyloid plaque imaging” (Bioorg Med Chem Lett, 2011).
Activity calls are given as the source filed them. The calls are words filed in the database; no cut-off is given here.

Key:
[1] = Binding affinity to amyloid beta (1 to 42) after 3 hrs using [125I]IMSB by gamma counter method
Mus musculus [2] = assay: In vivo binding affinity to amyloid beta (1 to 42) in wild type mouse brain at 100 uM after 30 mins by microscopy; type: functional, organism-based
Mus musculus [3] = assay: In vivo binding affinity to amyloid beta (1 to 42) in double transgenic APP/PS-1 mouse brain at 100 uM after 30 mins by microscopy; type: functional, organism-based
[4] = Ratio of drug uptake in hippocampus to cerebellum in transgenic Tg2576 mouse brain; settings: in vivo
[5] = Binding affinity to amyloid beta (1 to 40) after 3 hrs using [125I]IMSB by gamma counter method
Kidney [6] = assay: Biodistribution in ICR mouse Kidney at 1.11 MBq, iv after 120 mins; type: ADME, organism-based; settings: in vivo, 2 h
Muscle tissue [7] = assay: Biodistribution in ICR mouse Muscle at 1.11 MBq, iv after 2 mins; type: ADME, organism-based; settings: in vivo
Lung [8] = assay: Biodistribution in ICR mouse Lung at 1.11 MBq, iv after 120 mins; type: ADME, organism-based; settings: in vivo, 2 h
Heart [9] = assay: Biodistribution in ICR mouse heart at 1.11 MBq, iv after 120 mins; type: ADME, organism-based; settings: in vivo, 2 h
Liver [10] = assay: Biodistribution in ICR mouse Liver at 1.11 MBq, iv after 2 mins; type: ADME, organism-based; settings: in vivo
Blood [11] = assay: Biodistribution in ICR mouse blood at 1.11 MBq, iv after 2 mins; type: ADME, organism-based; settings: in vivo
Heart [12] = assay: Biodistribution in ICR mouse heart at 1.11 MBq, iv after 60 mins; type: ADME, organism-based; settings: in vivo, 1 h
Brain [13] = assay: Biodistribution in ICR mouse Brain at 1.11 MBq, iv after 30 mins; type: ADME, organism-based; settings: in vivo, 0.5 h
Muscle tissue [14] = assay: Biodistribution in ICR mouse Muscle at 1.11 MBq, iv after 30 mins; type: ADME, organism-based; settings: in vivo, 0.5 h
Lung [15] = assay: Biodistribution in ICR mouse Lung at 1.11 MBq, iv after 60 mins; type: ADME, organism-based; settings: in vivo, 1 h
Femur [16] = assay: Biodistribution in ICR mouse Femur at 1.11 MBq, iv after 120 mins; type: ADME, organism-based; settings: in vivo, 2 h
Lung [17] = assay: Biodistribution in ICR mouse Lung at 1.11 MBq, iv after 30 mins; type: ADME, organism-based; settings: in vivo, 0.5 h
Blood [18] = assay: Biodistribution in ICR mouse blood at 1.11 MBq, iv after 30 mins; type: ADME, organism-based; settings: in vivo, 0.5 h
Muscle tissue [19] = assay: Biodistribution in ICR mouse Muscle at 1.11 MBq, iv after 120 mins; type: ADME, organism-based; settings: in vivo, 2 h
Heart [20] = assay: Biodistribution in ICR mouse heart at 1.11 MBq, iv after 2 mins; type: ADME, organism-based; settings: in vivo
Lung [21] = assay: Biodistribution in ICR mouse Lung at 1.11 MBq, iv after 2 mins; type: ADME, organism-based; settings: in vivo
[22] = Octanol-water partition coefficient, log P of the compound by TLC analysis; type: physicochemical
Muscle tissue [23] = assay: Biodistribution in ICR mouse Muscle at 1.11 MBq, iv after 60 mins; type: ADME, organism-based; settings: in vivo, 1 h
Liver [24] = assay: Biodistribution in ICR mouse Liver at 1.11 MBq, iv after 60 mins; type: ADME, organism-based; settings: in vivo, 1 h
Brain [25] = assay: Biodistribution in ICR mouse Brain at 1.11 MBq, iv after 120 mins; type: ADME, organism-based; settings: in vivo, 2 h
Heart [26] = assay: Biodistribution in ICR mouse heart at 1.11 MBq, iv after 30 mins; type: ADME, organism-based; settings: in vivo, 0.5 h
Brain [27] = assay: Biodistribution in ICR mouse Brain at 1.11 MBq, iv after 2 mins; type: ADME, organism-based; settings: in vivo
Spleen [28] = assay: Biodistribution in ICR mouse Spleen at 1.11 MBq, iv after 30 mins; type: ADME, organism-based; settings: in vivo, 0.5 h
Femur [29] = assay: Biodistribution in ICR mouse Femur at 1.11 MBq, iv after 60 mins; type: ADME, organism-based; settings: in vivo, 1 h
Kidney [30] = assay: Biodistribution in ICR mouse Kidney at 1.11 MBq, iv after 30 mins; type: ADME, organism-based; settings: in vivo, 0.5 h
Spleen [31] = assay: Biodistribution in ICR mouse Spleen at 1.11 MBq, iv after 2 mins; type: ADME, organism-based; settings: in vivo
Blood [32] = assay: Biodistribution in ICR mouse blood at 1.11 MBq, iv after 60 mins; type: ADME, organism-based; settings: in vivo, 1 h
Brain [33] = assay: Biodistribution in ICR mouse Brain at 1.11 MBq, iv after 60 mins; type: ADME, organism-based; settings: in vivo, 1 h
Spleen [34] = assay: Biodistribution in ICR mouse Spleen at 1.11 MBq, iv after 120 mins; type: ADME, organism-based; settings: in vivo, 2 h
Femur [35] = assay: Biodistribution in ICR mouse Femur at 1.11 MBq, iv after 30 mins; type: ADME, organism-based; settings: in vivo, 0.5 h
Femur [36] = assay: Biodistribution in ICR mouse Femur at 1.11 MBq, iv after 2 mins; type: ADME, organism-based; settings: in vivo
Kidney [37] = assay: Biodistribution in ICR mouse Kidney at 1.11 MBq, iv after 60 mins; type: ADME, organism-based; settings: in vivo, 1 h
Blood [38] = assay: Biodistribution in ICR mouse blood at 1.11 MBq, iv after 120 mins; type: ADME, organism-based; settings: in vivo, 2 h
Kidney [39] = assay: Biodistribution in ICR mouse Kidney at 1.11 MBq, iv after 2 mins; type: ADME, organism-based; settings: in vivo
Liver [40] = assay: Biodistribution in ICR mouse Liver at 1.11 MBq, iv after 120 mins; type: ADME, organism-based; settings: in vivo, 2 h
Liver [41] = assay: Biodistribution in ICR mouse Liver at 1.11 MBq, iv after 30 mins; type: ADME, organism-based; settings: in vivo, 0.5 h
Spleen [42] = assay: Biodistribution in ICR mouse Spleen at 1.11 MBq, iv after 60 mins; type: ADME, organism-based; settings: in vivo, 1 h

COc1ccc(/C=C/C(=O)/C=C(O)/C=C/c2ccc(OCCOCCF)c(OC)c2)cc1OC
Ki [1]: 3.01 nM

[11CH3]Nc1ccc(-c2nc3ccc(O)cc3s2)cn1
Ki [1]: 1.7 nM

COc1ccc(/C=C/C(=O)/C=C(O)/C=C/c2ccc(OCCF)c(OC)c2)cc1OC
Activity (Mus musculus [2]): inactive | Ki [1]: 2.12 nM | Activity (Mus musculus [3]): Active

O=C(O)c1cc(/N=N/c2ccc(-c3ccc(/N=N/c4ccc(O)c(C(=O)O)c4)cc3)cc2)ccc1O [CHRYSAMINE G]
Ki [1]: 0.43 nM

COc1cc(/C=C/C(O)=C/C(=O)/C=C/c2ccc(OCCC[18F])c(OC)c2)ccc1O
Ratio [4]: 3 | Ki [5]: 0.07 nM

COc1cc(/C=C/C(=O)/C=C(O)/C=C/c2ccc(OCCOCCOCCF)c(OC)c2)ccc1O
Ki [1]: 4.44 nM

COc1cc(/C=C/C(=O)CC(=O)/C=C/c2ccc(O)c(OC)c2)ccc1O [CURCUMIN]
Ki [1]: 3.57 nM

COc1cc(/C=C/C(=O)/C=C(O)/C=C/c2ccc(OCCOCCF)c(OC)c2)ccc1O
Ki [1]: 4.65 nM

COc1ccc(/C=C/C(=O)/C=C(O)/C=C/c2ccc(OCC[18F])c(OC)c2)cc1OC
Drug uptake (Kidney [6]): 1.42 % ID/g | Drug uptake (Muscle tissue [7]): 0.89 % ID/g | Drug uptake (Lung [8]): 2.19 % ID/g | Drug uptake (Heart [9]): 1.54 % ID/g | Drug uptake (Liver [10]): 38.83 % ID/g | Drug uptake (Blood [11]): 9.76 % ID/g | Drug uptake (Heart [12]): 1.3 % ID/g | Drug uptake (Brain [13]): 0.45 % ID/g | Drug uptake (Muscle tissue [14]): 0.76 % ID/g | Drug uptake (Lung [15]): 2.27 % ID/g | Drug uptake (Femur [16]): 1.62 % ID/g | Drug uptake (Lung [17]): 3.94 % ID/g | Drug uptake (Blood [18]): 1.26 % ID/g | Drug uptake (Muscle tissue [19]): 0.37 % ID/g | Drug uptake (Heart [20]): 7.18 % ID/g | Drug uptake (Lung [21]): 23.78 % ID/g | logP [22]: 2.4 | Drug uptake (Muscle tissue [23]): 0.47 % ID/g | Drug uptake (Liver [24]): 26.83 % ID/g | Drug uptake (Brain [25]): 0.29 % ID/g | Drug uptake (Heart [26]): 1.68 % ID/g | Drug uptake (Brain [27]): 1.44 % ID/g | Drug uptake (Spleen [28]): 20.8 % ID/g | Drug uptake (Femur [29]): 1 % ID/g | Drug uptake (Kidney [30]): 4.01 % ID/g | Drug uptake (Spleen [31]): 16.41 % ID/g | Drug uptake (Blood [32]): 0.89 % ID/g | Drug uptake (Brain [33]): 0.43 % ID/g | Drug uptake (Spleen [34]): 8.08 % ID/g | Drug uptake (Femur [35]): 1.08 % ID/g | Drug uptake (Femur [36]): 1.86 % ID/g | Drug uptake (Kidney [37]): 2.25 % ID/g | Drug uptake (Blood [38]): 0.67 % ID/g | Drug uptake (Kidney [39]): 10.95 % ID/g | Drug uptake (Liver [40]): 12.51 % ID/g | Drug uptake (Liver [41]): 43.02 % ID/g | Drug uptake (Spleen [42]): 10.59 % ID/g

COc1ccc(/C=C/c2ccc(/C=C/c3ccc(OC)c(C(=O)O)c3)c([125I])c2)cc1C(=O)O
Kd [1]: 1.19 nM

COc1ccc(/C=C/C(=O)/C=C(O)/C=C/c2ccc(OCCCF)c(OC)c2)cc1OC
Ki [1]: 2.69 nM
